Reference: patent publication US20230085307A1, “PYRIDAZINONE COMPOUND AND HERBICIDE” (NISSAN CHEMICAL CORPORATION, priority 2019, published 2023)

How the values were obtained:
late watergrass [1] = assay: Test Example 1: herbicidal activity, application before weed generation under submerged conditions (Table 16, symbol A); assay type: in vivo, late watergrass (Echinochloa oryzicola); conditions: amount of applied herbicide 320 g/ha
Summary of the method: (§1)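 Emulsion formulation, water-diluted to set dose, was put onto the flooded surface (4 cm depth, alluvial soil) the same day weeds were sown and 2.5-leaf rice transplanted. After 3 weeks at 25-30 °C under glass, each species was rated 0 (≤5% kill) to 5 (≥90% kill).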

Japanese bulrush [2] = assay: Test Example 1: herbicidal activity, application before weed generation under submerged conditions (Table 16, symbol B); assay type: in vivo, Japanese bulrush (Schoenoplectus juncoides); conditions: amount of applied herbicide 320 g/ha
Summary of the method: as §1

oval-leafed pondweed [3] = assay: Test Example 1: herbicidal activity, application before weed generation under submerged conditions (Table 16, symbol C); assay type: in vivo, oval-leafed pondweed (Monochoria vaginalis); conditions: amount of applied herbicide 320 g/ha
Summary of the method: as §1

late watergrass [4] = assay: Test Example 2: herbicidal activity, application during weed generation under submerged conditions (Table 17, symbol A); assay type: in vivo, late watergrass (Echinochloa oryzicola); conditions: AAH 320 g/ha; application during weed generation, submerged conditions
Summary of the method: (§2)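 Herbicide emulsion, diluted with water to the chosen amount, is applied onto 4 cm floodwater over alluvial soil where the weeds were co-sown and raised at 25–30° C. Application timing: 1–2 leaves. Assessment: three weeks afterwards.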

Japanese bulrush [5] = assay: Test Example 2: herbicidal activity, application during weed generation under submerged conditions (Table 17, symbol B); assay type: in vivo, Japanese bulrush (Schoenoplectus juncoides); conditions: AAH 320 g/ha; application during weed generation, submerged conditions
Summary of the method: as §2

oval-leafed pondweed [6] = assay: Test Example 2: herbicidal activity, application during weed generation under submerged conditions (Table 17, symbol C); assay type: in vivo, oval-leafed pondweed (Monochoria vaginalis); conditions: AAH 320 g/ha; application during weed generation, submerged conditions
Summary of the method: as §2

barnyard grass [7] = assay: Test Example 3: herbicidal effect by foliage application, Wagner pot (Table 18, symbol H); assay type: in vivo, barnyard grass (Echinochloa crus-galli); conditions: for herbicidal effect on H: barnyard grass: amount of applied herbicide 320 g/ha
Summary of the method: (§3)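 Plants were sown in alluvial soil held under 0.1–0.5 cm standing water and grown 14 days in a greenhouse at 25–30 °C. An emulsifiable formulation, water-diluted to the set dose, was then sprayed onto the foliage, and effects were scored three weeks later using previously defined criteria.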

Chinese sprangletop = assay: Test Example 3: herbicidal effect by foliage application, Wagner pot (Table 18, symbol D); assay type: in vivo, chinese sprangletop (Leptochloa chinensis); conditions: for herbicidal effect on D: Chinese sprangletop: amount of applied herbicide 320 g/ha
Summary of the method: as §3

rice flat sedge = assay: Test Example 3: herbicidal effect by foliage application, Wagner pot (Table 18, symbol E); assay type: in vivo, rice flat sedge (Cyperus iria); conditions: for herbicidal effect on E: rice flat sedge: amount of applied herbicide 320 g/ha
Summary of the method: as §3

southern crabgrass [8] = assay: Test Example 5: herbicidal effect by foliage application, plastic box (Table 20, symbol F); assay type: in vivo, southern crabgrass (Digitaria ciliaris); conditions: 320 g/ha; for F: southern crabgrass, herbicidal effect grade: foliage application, three weeks after application
Summary of the method: (§4)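 Post-emergence foliar test in sterilized diluvial soil. Compound applied as water-diluted emulsion at a predetermined rate to 14-day-old plants; evaluation at three weeks.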

green foxtail [9] = assay: Test Example 5: herbicidal effect by foliage application, plastic box (Table 20, symbol G); assay type: in vivo, green foxtail (Setaria viridis); conditions: 320 g/ha; for G: green foxtail, herbicidal effect grade: foliage application, three weeks after application
Summary of the method: as §4

barnyard grass [10] = assay: Test Example 5: herbicidal effect by foliage application, plastic box (Table 20, symbol H); assay type: in vivo, barnyard grass (Echinochloa crus-galli); conditions: 320 g/ha; for H: barnyard grass, herbicidal effect grade: foliage application, three weeks after application
Summary of the method: as §4

wild oat = assay: Test Example 5: herbicidal effect by foliage application, plastic box (Table 20, symbol I); assay type: in vivo, wild oat (Avena fatua); conditions: 320 g/ha
Summary of the method: as §4

blackgrass = assay: Test Example 5: herbicidal effect by foliage application, plastic box (Table 20, symbol J); assay type: in vivo, blackgrass (Alopecurus myosuroides); conditions: 320 g/ha
Summary of the method: as §4

Italian ryegrass = assay: Test Example 5: herbicidal effect by foliage application, plastic box (Table 20, symbol K); assay type: in vivo, Italian ryegrass (Lolium multiflorum); conditions: 320 g/ha
Summary of the method: as §4

windgrass = assay: Test Example 5: herbicidal effect by foliage application, plastic box (Table 20, symbol L); assay type: in vivo, windgrass (Apera spica-venti); conditions: 320 g/ha
Summary of the method: as §4

velvetleaf [11] = assay: Test Example 5: herbicidal effect by foliage application, plastic box (Table 20, symbol M); assay type: in vivo, velvetleaf (Abutilon theophrasti); conditions: 320 g/ha; for M: velvetleaf, herbicidal effect grade: foliage application, three weeks after application
Summary of the method: as §4

redroot pigweed [12] = assay: Test Example 5: herbicidal effect by foliage application, plastic box (Table 20, symbol N); assay type: in vivo, redroot pigweed (Amaranthus retroflexus); conditions: 320 g/ha; for N: redroot pigweed, herbicidal effect grade: foliage application, three weeks after application
Summary of the method: as §4

lambsquarters [13] = assay: Test Example 5: herbicidal effect by foliage application, plastic box (Table 20, symbol O); assay type: in vivo, lambsquarters (Chenopodium album); conditions: 320 g/ha; for O: lambsquarters, herbicidal effect grade: foliage application, three weeks after application
Summary of the method: as §4

chickweed = assay: Test Example 5: herbicidal effect by foliage application, plastic box (Table 20, symbol P); assay type: in vivo, common chickweed (Stellaria media); conditions: 320 g/ha
Summary of the method: as §4

persian speedwell = assay: Test Example 5: herbicidal effect by foliage application, plastic box (Table 20, symbol R); assay type: in vivo, Persian speedwell (Veronica persica); conditions: 320 g/ha
Summary of the method: as §4

southern crabgrass [14] = assay: Test Example 4: herbicidal effect by soil treatment (Table 19, symbol F); assay type: in vivo, southern crabgrass (Digitaria ciliaris); conditions: amount of applied herbicide 320 g/ha
Summary of the method: (§5)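 Emulsion of test compound, water-diluted to predetermined amount, sprayed on soil after sowing (seed depth ~1.5 cm, sterilized diluvial soil). Greenhouse, 25–30° C. Effect graded at three weeks post-spray.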

green foxtail [15] = assay: Test Example 4: herbicidal effect by soil treatment (Table 19, symbol G); assay type: in vivo, green foxtail (Setaria viridis); conditions: amount of applied herbicide 320 g/ha
Summary of the method: as §5

barnyard grass [16] = assay: Test Example 4: herbicidal effect by soil treatment (Table 19, symbol H); assay type: in vivo, barnyard grass (Echinochloa crus-galli); conditions: amount of applied herbicide 320 g/ha
Summary of the method: as §5

velvetleaf [17] = assay: Test Example 4: herbicidal effect by soil treatment (Table 19, symbol M); assay type: in vivo, velvetleaf (Abutilon theophrasti); conditions: amount of applied herbicide 320 g/ha
Summary of the method: as §5

redroot pigweed [18] = assay: Test Example 4: herbicidal effect by soil treatment (Table 19, symbol N); assay type: in vivo, redroot pigweed (Amaranthus retroflexus); conditions: amount of applied herbicide 320 g/ha
Summary of the method: as §5

lambsquarters [19] = assay: Test Example 4: herbicidal effect by soil treatment (Table 19, symbol O); assay type: in vivo, lambsquarters (Chenopodium album); conditions: amount of applied herbicide 320 g/ha
Summary of the method: as §5

[20] = foliage application after 14-day growth, evaluated three weeks after application
[21] = foliage application, three weeks after application

SMILES | Herbicidal effect, A: late watergrass (late watergrass [1]) | Herbicidal effect, B: Japanese bulrush (Japanese bulrush [2]) | Herbicidal effect, C: oval-leafed pondweed (oval-leafed pondweed [3]) | herbicidal effect rating, A: late watergrass (late watergrass [4]) | herbicidal effect rating, B: Japanese bulrush (Japanese bulrush [5]) | herbicidal effect rating, C: oval-leafed pondweed (oval-leafed pondweed [6]) | herbicidal effect on H: barnyard grass (barnyard grass [7]) | herbicidal effect on D: Chinese sprangletop (Chinese sprangletop) | herbicidal effect on E: rice flat sedge (rice flat sedge) | F: southern crabgrass, herbicidal effect grade (southern crabgrass [8]) | G: green foxtail, herbicidal effect grade (green foxtail [9]) | H: barnyard grass, herbicidal effect grade (barnyard grass [10]) | M: velvetleaf, herbicidal effect grade (velvetleaf [11]) | N: redroot pigweed, herbicidal effect grade (redroot pigweed [12]) | O: lambsquarters, herbicidal effect grade (lambsquarters [13]) | also measured
COc1ccc2c(-c3c(OC(=O)C(C)c4ccccc4)c(C)nn(C)c3=O)c(-c3ccccc3OC)sc2c1 (stereo not drawn) [3-157] | 5 (Herbicidal rate of 90% or more (almost completely withered)) | 3 (Herbicidal rate of 40% or more and less than 70%) | 3 (Herbicidal rate of 40% or more and less than 70%) | 4 (Herbicidal rate of 70% or more and less than 90%) | 3 (Herbicidal rate of 40% or more and less than 70%) | 4 (Herbicidal rate of 70% or more and less than 90%) |  |  |  |  |  |  |  |  |  | herbicidal effect on barnyard grass (H) (barnyard grass [7]; 320 g/ha): 5 (Herbicidal rate of 90% or more (almost completely withered)); herbicidal effect on Chinese sprangletop (D) (Chinese sprangletop; 320 g/ha): 3 (Herbicidal rate of 40% or more and less than 70%); herbicidal effect on rice flat sedge (E) (rice flat sedge; 320 g/ha): 3 (Herbicidal rate of 40% or more and less than 70%); herbicidal effect on F: southern crabgrass (evaluation grade 0-5) (southern crabgrass [8]; [20]): 4 (Herbicidal rate of 70% or more and less than 90%); herbicidal effect on G: green foxtail (evaluation grade 0-5) (green foxtail [9]; [20]): 4 (Herbicidal rate of 70% or more and less than 90%); herbicidal effect on H: barnyard grass (evaluation grade 0-5) (barnyard grass [10]; [20]): 5 (Herbicidal rate of 90% or more (almost completely withered)); herbicidal effect on I: wild oat (evaluation grade 0-5) (wild oat; [20]): 3 (Herbicidal rate of 40% or more and less than 70%); herbicidal effect on J: blackgrass (evaluation grade 0-5) (blackgrass; [20]): 4 (Herbicidal rate of 70% or more and less than 90%); herbicidal effect on K: Italian ryegrass (evaluation grade 0-5) (Italian ryegrass; [20]): 3 (Herbicidal rate of 40% or more and less than 70%); herbicidal effect on L: windgrass (evaluation grade 0-5) (windgrass; [20]): 5 (Herbicidal rate of 90% or more (almost completely withered)); herbicidal effect on M: velvetleaf (evaluation grade 0-5) (velvetleaf [11]; [20]): 5 (Herbicidal rate of 90% or more (almost completely withered)); herbicidal effect on N: redroot pigweed (evaluation grade 0-5) (redroot pigweed [12]; [20]): 4 (Herbicidal rate of 70% or more and less than 90%); herbicidal effect on O: lambsquarters (evaluation grade 0-5) (lambsquarters [13]; [20]): 4 (Herbicidal rate of 70% or more and less than 90%); herbicidal effect on P: chickweed (evaluation grade 0-5) (chickweed; [20]): 4 (Herbicidal rate of 70% or more and less than 90%); herbicidal effect on R: persian speedwell (evaluation grade 0-5) (persian speedwell; [20]): 4 (Herbicidal rate of 70% or more and less than 90%)
CCCC(=O)Oc1c(CC)nn(C)c(=O)c1-c1c(-c2ccc(OC(F)(F)F)cc2)sc2ccc(F)cc12 [2-413] | 3 (Herbicidal rate of 40% or more and less than 70%) | 0 (Herbicidal rate of 5% or less (almost no effect)) | 0 (Herbicidal rate of 5% or less (almost no effect)) | 3 (Herbicidal rate of 40% or more and less than 70%) | 1 (Herbicidal rate of 5% or more and less than 20%) | 0 (Herbicidal rate of 5% or less (almost no effect)) | 5 (Herbicidal rate of 90% or more (almost completely withered)) | 4 (Herbicidal rate of 70% or more and less than 90%) | 4 (Herbicidal rate of 70% or more and less than 90%) | 0 (Herbicidal rate of 5% or less (almost no effect)) | 3 (Herbicidal rate of 40% or more and less than 70%) | 1 (Herbicidal rate of 5% or more and less than 20%) | 4 (Herbicidal rate of 70% or more and less than 90%) | 4 (Herbicidal rate of 70% or more and less than 90%) | 4 (Herbicidal rate of 70% or more and less than 90%) | I: wild oat, herbicidal effect grade (wild oat; [21]): 0 (Herbicidal rate of 5% or less (almost no effect)); J: blackgrass, herbicidal effect grade (blackgrass; [21]): 0 (Herbicidal rate of 5% or less (almost no effect)); K: Italian ryegrass, herbicidal effect grade (Italian ryegrass; [21]): 2 (Herbicidal rate of 20% or more and less than 40%); L: windgrass, herbicidal effect grade (windgrass; [21]): 0 (Herbicidal rate of 5% or less (almost no effect)); P: chickweed, herbicidal effect grade (chickweed; [21]): 5 (Herbicidal rate of 90% or more (almost completely withered)); R: persian speedwell, herbicidal effect grade (persian speedwell; [21]): 5 (Herbicidal rate of 90% or more (almost completely withered))
COCCS(=O)(=O)c1ccc(-c2sc3ccc(F)cc3c2-c2c(O)c(C)nn(C)c2=O)cc1 [2-455] | 3 (Herbicidal rate of 40% or more and less than 70%) | 0 (Herbicidal rate of 5% or less (almost no effect)) | 0 (Herbicidal rate of 5% or less (almost no effect)) | 3 (Herbicidal rate of 40% or more and less than 70%) | 0 (Herbicidal rate of 5% or less (almost no effect)) | 0 (Herbicidal rate of 5% or less (almost no effect)) | 5 (Herbicidal rate of 90% or more (almost completely withered)) | 2 (Herbicidal rate of 20% or more and less than 40%) | 0 (Herbicidal rate of 5% or less (almost no effect)) | 4 (Herbicidal rate of 70% or more and less than 90%) | 3 (Herbicidal rate of 40% or more and less than 70%) | 4 (Herbicidal rate of 70% or more and less than 90%) | 4 (Herbicidal rate of 70% or more and less than 90%) | 5 (Herbicidal rate of 90% or more (almost completely withered)) | 3 (Herbicidal rate of 40% or more and less than 70%) | herbicidal effect, F: southern crabgrass (southern crabgrass [14]): 4 (Herbicidal rate of 70% or more and less than 90%); herbicidal effect, G: green foxtail (green foxtail [15]): 4 (Herbicidal rate of 70% or more and less than 90%); herbicidal effect, H: barnyard grass (barnyard grass [16]): 0 (Herbicidal rate of 5% or less (almost no effect)); herbicidal effect, M: velvetleaf (velvetleaf [17]): 1 (Herbicidal rate of 5% or more and less than 20%); herbicidal effect, N: redroot pigweed (redroot pigweed [18]): 4 (Herbicidal rate of 70% or more and less than 90%); herbicidal effect, O: lambsquarters (lambsquarters [19]): 3 (Herbicidal rate of 40% or more and less than 70%)
